# Results from patent publication US20230085307A1, “PYRIDAZINONE COMPOUND AND HERBICIDE” (NISSAN CHEMICAL CORPORATION, priority 2019, published 2023).
# What was measured:
# late watergrass = assay: Test Example 1: herbicidal activity, application before weed generation under submerged conditions (Table 16, symbol A); assay type: in vivo, late watergrass (Echinochloa oryzicola); conditions: 320 g/ha applied herbicide
# Procedure, shortened: (§1)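 Submerged Wagner pots (alluvial soil, 4 cm water) sown with weed seeds and planted with 2.5-leaf rice seedlings; emulsifiable concentrate diluted in water applied to water surface on sowing day. Held in greenhouse at 25-30 °C; injury scored 0-5 by herbicidal rate after three weeks.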
# Japanese bulrush = assay: Test Example 1: herbicidal activity, application before weed generation under submerged conditions (Table 16, symbol B); assay type: in vivo, Japanese bulrush (Schoenoplectus juncoides); conditions: 320 g/ha applied herbicide
# Procedure, shortened: as §1
# oval-leafed pondweed = assay: Test Example 1: herbicidal activity, application before weed generation under submerged conditions (Table 16, symbol C); assay type: in vivo, oval-leafed pondweed (Monochoria vaginalis); conditions: 320 g/ha applied herbicide
# Procedure, shortened: as §1
# barnyard grass [1] = assay: Test Example 3: herbicidal effect by foliage application, Wagner pot (Table 18, symbol H); assay type: in vivo, barnyard grass (Echinochloa crus-galli); conditions: amount of applied herbicide 320 g/ha
# Procedure, shortened: (§2)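 Plants were sown in alluvial soil held under 0.1–0.5 cm standing water and grown 14 days in a greenhouse at 25–30 °C. An emulsifiable formulation, water-diluted to the set dose, was then sprayed onto the foliage, and effects were scored three weeks later using previously defined criteria.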
# Chinese sprangletop = assay: Test Example 3: herbicidal effect by foliage application, Wagner pot (Table 18, symbol D); assay type: in vivo, chinese sprangletop (Leptochloa chinensis); conditions: amount of applied herbicide 320 g/ha
# Procedure, shortened: as §2
# rice flat sedge = assay: Test Example 3: herbicidal effect by foliage application, Wagner pot (Table 18, symbol E); assay type: in vivo, rice flat sedge (Cyperus iria); conditions: amount of applied herbicide 320 g/ha
# Procedure, shortened: as §2
# southern crabgrass [2] = assay: Test Example 4: herbicidal effect by soil treatment (Table 19, symbol F); assay type: in vivo, southern crabgrass (Digitaria ciliaris); conditions: amount of applied herbicide 320 g/ha
# Procedure, shortened: (§3)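 Herbicidal effect was rated 3 weeks after treatment, using the scoring criteria of an earlier test. The compound, formulated as an emulsion and diluted in water to a set herbicide amount, had been sprayed uniformly on soil over freshly sown seeds. Growth took place in a greenhouse at 25° C. to 30° C.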
# green foxtail [3] = assay: Test Example 4: herbicidal effect by soil treatment (Table 19, symbol G); assay type: in vivo, green foxtail (Setaria viridis); conditions: amount of applied herbicide 320 g/ha
# Procedure, shortened: as §3
# barnyard grass [4] = assay: Test Example 4: herbicidal effect by soil treatment (Table 19, symbol H); assay type: in vivo, barnyard grass (Echinochloa crus-galli); conditions: amount of applied herbicide 320 g/ha
# Procedure, shortened: as §3
# wild oat [5] = assay: Test Example 4: herbicidal effect by soil treatment (Table 19, symbol I); assay type: in vivo, wild oat (Avena fatua); conditions: amount of applied herbicide 320 g/ha
# Procedure, shortened: as §3
# blackgrass [6] = assay: Test Example 4: herbicidal effect by soil treatment (Table 19, symbol J); assay type: in vivo, blackgrass (Alopecurus myosuroides); conditions: amount of applied herbicide 320 g/ha
# Procedure, shortened: as §3
# Italian ryegrass [7] = assay: Test Example 4: herbicidal effect by soil treatment (Table 19, symbol K); assay type: in vivo, Italian ryegrass (Lolium multiflorum); conditions: amount of applied herbicide 320 g/ha
# Procedure, shortened: as §3
# windgrass [8] = assay: Test Example 4: herbicidal effect by soil treatment (Table 19, symbol L); assay type: in vivo, windgrass (Apera spica-venti); conditions: amount of applied herbicide 320 g/ha
# Procedure, shortened: as §3
# velvetleaf [9] = assay: Test Example 4: herbicidal effect by soil treatment (Table 19, symbol M); assay type: in vivo, velvetleaf (Abutilon theophrasti); conditions: amount of applied herbicide 320 g/ha
# Procedure, shortened: as §3
# redroot pigweed [10] = assay: Test Example 4: herbicidal effect by soil treatment (Table 19, symbol N); assay type: in vivo, redroot pigweed (Amaranthus retroflexus); conditions: amount of applied herbicide 320 g/ha
# Procedure, shortened: as §3
# lambsquarters [11] = assay: Test Example 4: herbicidal effect by soil treatment (Table 19, symbol O); assay type: in vivo, lambsquarters (Chenopodium album); conditions: amount of applied herbicide 320 g/ha
# Procedure, shortened: as §3
# chickweed [12] = assay: Test Example 4: herbicidal effect by soil treatment (Table 19, symbol P); assay type: in vivo, common chickweed (Stellaria media); conditions: amount of applied herbicide 320 g/ha
# Procedure, shortened: as §3
# persian speedwell [13] = assay: Test Example 4: herbicidal effect by soil treatment (Table 19, symbol R); assay type: in vivo, Persian speedwell (Veronica persica); conditions: amount of applied herbicide 320 g/ha
# Procedure, shortened: as §3
# southern crabgrass [14] = assay: Test Example 5: herbicidal effect by foliage application, plastic box (Table 20, symbol F); assay type: in vivo, southern crabgrass (Digitaria ciliaris); conditions: foliage application, 320 g/ha, evaluated three weeks after application
# Procedure, shortened: (§4)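 Foliar spray test: emulsion formulation diluted in water to a set application rate, sprayed onto 14-day-old plants raised in diluvial soil at 25° C to 30° C under glass. Both herbicidal effect and crop effect rated visually three weeks later.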
# green foxtail [15] = assay: Test Example 5: herbicidal effect by foliage application, plastic box (Table 20, symbol G); assay type: in vivo, green foxtail (Setaria viridis); conditions: foliage application, 320 g/ha, evaluated three weeks after application
# Procedure, shortened: as §4
# barnyard grass [16] = assay: Test Example 5: herbicidal effect by foliage application, plastic box (Table 20, symbol H); assay type: in vivo, barnyard grass (Echinochloa crus-galli); conditions: foliage application, 320 g/ha, evaluated three weeks after application
# Procedure, shortened: as §4
# wild oat [17] = assay: Test Example 5: herbicidal effect by foliage application, plastic box (Table 20, symbol I); assay type: in vivo, wild oat (Avena fatua); conditions: foliage application, 320 g/ha, evaluated three weeks after application
# Procedure, shortened: as §4
# blackgrass [18] = assay: Test Example 5: herbicidal effect by foliage application, plastic box (Table 20, symbol J); assay type: in vivo, blackgrass (Alopecurus myosuroides); conditions: foliage application, 320 g/ha, evaluated three weeks after application
# Procedure, shortened: as §4
# Italian ryegrass [19] = assay: Test Example 5: herbicidal effect by foliage application, plastic box (Table 20, symbol K); assay type: in vivo, Italian ryegrass (Lolium multiflorum); conditions: foliage application, 320 g/ha, evaluated three weeks after application
# Procedure, shortened: as §4
# windgrass [20] = assay: Test Example 5: herbicidal effect by foliage application, plastic box (Table 20, symbol L); assay type: in vivo, windgrass (Apera spica-venti); conditions: foliage application, 320 g/ha, evaluated three weeks after application
# Procedure, shortened: as §4
# velvetleaf [21] = assay: Test Example 5: herbicidal effect by foliage application, plastic box (Table 20, symbol M); assay type: in vivo, velvetleaf (Abutilon theophrasti); conditions: foliage application, 320 g/ha, evaluated three weeks after application
# Procedure, shortened: as §4
# redroot pigweed [22] = assay: Test Example 5: herbicidal effect by foliage application, plastic box (Table 20, symbol N); assay type: in vivo, redroot pigweed (Amaranthus retroflexus); conditions: foliage application, 320 g/ha, evaluated three weeks after application
# Procedure, shortened: as §4
# lambsquarters [23] = assay: Test Example 5: herbicidal effect by foliage application, plastic box (Table 20, symbol O); assay type: in vivo, lambsquarters (Chenopodium album); conditions: foliage application, 320 g/ha, evaluated three weeks after application
# Procedure, shortened: as §4
# chickweed [24] = assay: Test Example 5: herbicidal effect by foliage application, plastic box (Table 20, symbol P); assay type: in vivo, common chickweed (Stellaria media); conditions: foliage application, 320 g/ha, evaluated three weeks after application
# Procedure, shortened: as §4
# persian speedwell [25] = assay: Test Example 5: herbicidal effect by foliage application, plastic box (Table 20, symbol R); assay type: in vivo, Persian speedwell (Veronica persica); conditions: foliage application, 320 g/ha, evaluated three weeks after application
# Procedure, shortened: as §4
compound,measurement,setting,value
COc1ccccc1-c1sc2ccc(C#N)cc2c1-c1c(O)c(C)nn(C)c1=O [2-190],Herbicidal effect on A: late watergrass (grade 0-5),late watergrass,3 (Herbicidal rate of 40% or more and less than 70%)
same,Herbicidal effect on B: Japanese bulrush (grade 0-5),Japanese bulrush,0 (Herbicidal rate of 5% or less (almost no effect))
same,Herbicidal effect on C: oval-leafed pondweed (grade 0-5),oval-leafed pondweed,0 (Herbicidal rate of 5% or less (almost no effect))
same,herbicidal effect on H: barnyard grass,barnyard grass [1],2 (Herbicidal rate of 20% or more and less than 40%)
same,herbicidal effect on D: Chinese sprangletop,Chinese sprangletop,2 (Herbicidal rate of 20% or more and less than 40%)
same,herbicidal effect on E: rice flat sedge,rice flat sedge,4 (Herbicidal rate of 70% or more and less than 90%)
same,"F: southern crabgrass, herbicidal effect rating",southern crabgrass [2],0 (Herbicidal rate of 5% or less (almost no effect))
same,"G: green foxtail, herbicidal effect rating",green foxtail [3],0 (Herbicidal rate of 5% or less (almost no effect))
same,"H: barnyard grass, herbicidal effect rating",barnyard grass [4],0 (Herbicidal rate of 5% or less (almost no effect))
same,"I: wild oat, herbicidal effect rating",wild oat [5],0 (Herbicidal rate of 5% or less (almost no effect))
same,"J: blackgrass, herbicidal effect rating",blackgrass [6],0 (Herbicidal rate of 5% or less (almost no effect))
same,"K: Italian ryegrass, herbicidal effect rating",Italian ryegrass [7],0 (Herbicidal rate of 5% or less (almost no effect))
same,"L: windgrass, herbicidal effect rating",windgrass [8],0 (Herbicidal rate of 5% or less (almost no effect))
same,"M: velvetleaf, herbicidal effect rating",velvetleaf [9],0 (Herbicidal rate of 5% or less (almost no effect))
same,"N: redroot pigweed, herbicidal effect rating",redroot pigweed [10],3 (Herbicidal rate of 40% or more and less than 70%)
same,"O: lambsquarters, herbicidal effect rating",lambsquarters [11],5 (Herbicidal rate of 90% or more (almost completely withered))
same,"P: chickweed, herbicidal effect rating",chickweed [12],0 (Herbicidal rate of 5% or less (almost no effect))
same,"R: persian speedwell, herbicidal effect rating",persian speedwell [13],0 (Herbicidal rate of 5% or less (almost no effect))
same,herbicidal effect on F: southern crabgrass (criteria 0-5),southern crabgrass [14],0 (Herbicidal rate of 5% or less (almost no effect))
same,herbicidal effect on G: green foxtail (criteria 0-5),green foxtail [15],0 (Herbicidal rate of 5% or less (almost no effect))
same,herbicidal effect on H: barnyard grass (criteria 0-5),barnyard grass [16],0 (Herbicidal rate of 5% or less (almost no effect))
same,herbicidal effect on I: wild oat (criteria 0-5),wild oat [17],0 (Herbicidal rate of 5% or less (almost no effect))
same,herbicidal effect on J: blackgrass (criteria 0-5),blackgrass [18],0 (Herbicidal rate of 5% or less (almost no effect))
same,herbicidal effect on K: Italian ryegrass (criteria 0-5),Italian ryegrass [19],0 (Herbicidal rate of 5% or less (almost no effect))
same,herbicidal effect on L: windgrass (criteria 0-5),windgrass [20],0 (Herbicidal rate of 5% or less (almost no effect))
same,herbicidal effect on M: velvetleaf (criteria 0-5),velvetleaf [21],3 (Herbicidal rate of 40% or more and less than 70%)
same,herbicidal effect on N: redroot pigweed (criteria 0-5),redroot pigweed [22],3 (Herbicidal rate of 40% or more and less than 70%)
same,herbicidal effect on O: lambsquarters (criteria 0-5),lambsquarters [23],2 (Herbicidal rate of 20% or more and less than 40%)
same,herbicidal effect on P: chickweed (criteria 0-5),chickweed [24],5 (Herbicidal rate of 90% or more (almost completely withered))
same,herbicidal effect on R: persian speedwell (criteria 0-5),persian speedwell [25],5 (Herbicidal rate of 90% or more (almost completely withered))
